From US8168199B2, “Dipeptidyl peptidase IV inhibitors for the treatment of schizophrenia and depression” (priority 2000, dated 2012)

System: Male WistarF/Han (WF) rats
Test: Elevated plus maze (EPM) testing, i.c.v. P32/98
Format: in vivo, rat
Protocol: Animals. […]
Elevated plus maze (EPM) testing. […] The following parameters were calculated: Total numbers of arm entries (TA); entries to closed arms (CA); entries to open arms (OA); percentage frequency of entries to open arms (% OA: OA×100/TA); total trial duration (TT): 300 s; duration of stay in closed arms (closed time; CLT); percentage share of CLT in total arms-stay duration (CLT×100/AT); duration of stay in open arms (open time; OT) and percentage share of OT in total arm-stay duration (% OT: OT×100/AT). In addition to the standard spatiotemporal measurements, “time spent and percentage of time on the central square” were recorded (center time, CT: duration of stay on platform in seconds; percentage share of CT in trial duration, % CT: CT×100/TT). […]

CC[C@H](C)[C@H](N)C(=O)N1CCSC1 [P32/98]
effect of treatment on percentage of time spent on the open arms (analysis of variance) (i.c.v. aCSF, 0.05, 5, 500 nmol): significant effect
percentage of time spent on the open arms of the EPM (i.c.v. low dose 50 pmol, 60 min before test, vs aCSF): increased
